# Test results taken from patent US8785445B2 (Array BioPharma Inc., priority 2008, dated 2014).
# Target: T1, human DP2 (Homo sapiens, UniProt Q9Y5Y4)
# T1 construct: expressed in transfected cells; membranes prepared
# T1 sequence (Q9Y5Y4 1-395): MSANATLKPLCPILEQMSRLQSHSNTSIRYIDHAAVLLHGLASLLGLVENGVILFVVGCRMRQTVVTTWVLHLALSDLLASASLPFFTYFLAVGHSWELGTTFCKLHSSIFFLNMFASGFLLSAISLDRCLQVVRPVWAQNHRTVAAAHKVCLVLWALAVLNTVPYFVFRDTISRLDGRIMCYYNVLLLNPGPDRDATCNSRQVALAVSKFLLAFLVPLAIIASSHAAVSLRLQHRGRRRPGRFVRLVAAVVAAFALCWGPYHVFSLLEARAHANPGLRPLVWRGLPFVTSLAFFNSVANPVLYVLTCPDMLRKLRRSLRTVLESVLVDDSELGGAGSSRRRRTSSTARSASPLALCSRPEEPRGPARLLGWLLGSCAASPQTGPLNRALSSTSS
# Experiment: DP-2 binding inhibition assay (3H-PGD2, membranes of DP2-expressing K562 cells)
# Conditions: 0.1% BSA, read-out: EC50 (nM) 0.1% BSA
# How it was run: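 Displacement of 3H-PGD2 was measured by filtration and scintillation counting after 60 min at room temperature, using membranes of DP2-transfected K562 cells in 0.1% BSA, 1% HSA or 4% HSA.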
row,EC50,SMILES
1,62.7 nM,"Cc1cnc(NC(=O)c2ccc(Oc3cc4c(cc3C#N)C(C(=O)O)CCO4)cc2)s1 (stereo not shown) [Example 176, 6-cyano-7-(4-(5-methylthiazol-2-ylcarbamoyl)phenoxy)chroman-4-carboxylic acid]"
2,68.2 nM,"Cc1csc(NC(=O)c2ccc(Oc3cc4c(cc3C#N)C(C(=O)O)CCO4)cc2)n1 (stereo not shown) [Example 177, 6-cyano-7-(4-(4-methylthiazol-2-ylcarbamoyl)phenoxy)chroman-4-carboxylic acid]"
3,301 nM,"N#Cc1cc2c(cc1Oc1ccc(C(=O)Nc3ccc4ncoc4c3)cc1)OCCC2C(=O)O (stereo not shown) [Example 188, 7-(4-(benzo[d]oxazol-6-ylcarbamoyl)phenoxy)-6-cyanochroman-4-carboxylic acid]"
4,43.3 nM,"Cc1nc2ccc(NC(=O)c3ccc(Oc4cc5c(cc4C#N)C(C(=O)O)CCO5)cc3)cc2s1 (stereo not shown) [Example 189, 6-cyano-7-(4-(2-methylbenzo[d]thiazol-6-ylcarbamoyl)phenoxy) chroman-4-carboxylic acid]"
5,49.3 nM,"Cc1nsc2ccc(NC(=O)c3ccc(Oc4cc5c(cc4C#N)C(C(=O)O)CCO5)cc3)cc12 (stereo not shown) [Example 190, 6-cyano-7-(4-(3-methylbenzo[d]isothiazol-5-ylcarbamoyl)phenoxy) chroman-4-carboxylic acid]"
6,41.5 nM,"N#Cc1cc2c(cc1Oc1ccc(C(=O)Nc3ccc4nc(C(F)(F)F)[nH]c4c3)cc1)OCCC2C(=O)O (stereo not shown) [Example 191, 6-cyano-7-(4-(2-(trifluoromethyl)-1H-benzo[d]imidazol-6-ylcarbamoyl)phenoxy) chroman-4-carboxylic acid]"

# Same assay, conditions: 1% HSA, read-out: EC50 (nM) 1% HSA
row,EC50,SMILES
1,137 nM,"N#Cc1cc2c(cc1Oc1ccc(C(=O)Nc3ccc4nc(C(F)(F)F)[nH]c4c3)cc1)OCCC2C(=O)O (stereo not shown) [Example 191, 6-cyano-7-(4-(2-(trifluoromethyl)-1H-benzo[d]imidazol-6-ylcarbamoyl)phenoxy) chroman-4-carboxylic acid]"

# Same assay, conditions: 4% HSA, read-out: EC50 (nM) 4% HSA
row,EC50,SMILES
1,16.6 nM,"O=C(Nc1nc(-c2cccc(Cl)c2)cs1)c1ccc(Oc2cc3c(cc2Cl)C(C(=O)O)CCO3)cc1 (stereo not shown) [Example 157, 6-chloro-7-(4-(4-(3-chlorophenyl)thiazol-2-ylcarbamoyl)phenoxy)chroman-4-carboxylic acid]"
2,155 nM,"CC(C)(C)c1cc(NC(=O)c2ccc(Oc3cc4c(cc3Cl)C(C(=O)O)CCO4)cc2)no1 (stereo not shown) [Example 158, 7-(4-(5-tert-butylisoxazol-3-ylcarbamoyl)phenoxy)-6-chlorochroman-4-carboxylic acid]"
3,437 nM,"CCc1oc(NC(=O)c2ccc(Oc3cc4c(cc3Cl)C(C(=O)O)CCO4)cc2)nc1-c1ccccc1 (stereo not shown) [Example 159, 6-chloro-7-(4-(5-ethyl-4-phenyloxazol-2-ylcarbamoyl)phenoxy)chroman-4-carboxylic acid]"
4,849 nM,"CC(C)c1nsc(NC(=O)c2ccc(Oc3cc4c(cc3Cl)C(C(=O)O)CCO4)cc2)n1 (stereo not shown) [Example 160, 6-chloro-7-(4-(3-isopropyl-1,2,4-thiadiazol-5-ylcarbamoyl)phenoxy)chroman-4-carboxylic acid]"
5,74.6 nM,"O=C(Nc1cc(-c2ccc(Cl)cc2)no1)c1ccc(Oc2cc3c(cc2Cl)C(C(=O)O)CCO3)cc1 (stereo not shown) [Example 161, 6-chloro-7-(4-(3-(4-chlorophenyl)isoxazol-5-ylcarbamoyl)phenoxy)chroman-4-carboxylic acid]"
6,1600 nM,"CC(C)(C)c1cc(NC(=O)c2ccc(Oc3cc4c(cc3Cl)C(C(=O)O)CCO4)cc2)on1 (stereo not shown) [Example 162, 7-(4-(3-tert-butylisoxazol-5-ylcarbamoyl)phenoxy)-6-chlorochroman-4-carboxylic acid]"
7,564 nM,"O=C(Nc1nc(-c2ccccc2)ns1)c1ccc(Oc2cc3c(cc2Cl)C(C(=O)O)CCO3)cc1 (stereo not shown) [Example 163, 6-chloro-7-(4-(3-phenyl-1,2,4-thiadiazol-5-ylcarbamoyl)phenoxy)chroman-4-carboxylic acid]"
8,143 nM,"O=C(Nc1cnn(-c2cccc(Cl)c2)c1)c1ccc(Oc2cc3c(cc2Cl)C(C(=O)O)CCO3)cc1 (stereo not shown) [Example 164, Sodium 6-chloro-7-(4-(1-(3-chlorophenyl)-1H-pyrazol-4-ylcarbamoyl)phenoxy)chroman-4-carboxylate]"
9,187 nM,"O=C(Nc1cnn(-c2cccc(Cl)c2)c1)c1ccc(Oc2c(Cl)cc3c(c2Cl)OCCC3C(=O)O)cc1 (stereo not shown) [Example 165, Sodium 6,8-dichloro-7-(4-(1-(3-chlorophenyl)-1H-pyrazol-4-ylcarbamoyl)phenoxy)chroman-4-carboxylate]"
10,85.1 nM,"O=C(Nc1ccn(-c2ccc(F)c(F)c2)n1)c1ccc(Oc2cc3c(cc2Cl)C(C(=O)O)CCO3)cc1 (stereo not shown) [Example 166, 6-chloro-7-(4-(1-(3,4-difluorophenyl)-1H-pyrazol-3-ylcarbamoyl)phenoxy)chroman-4-carboxylic acid]"
11,46.8 nM,"O=C(Nc1ccn(-c2ccc(F)c(Cl)c2)n1)c1ccc(Oc2cc3c(cc2Cl)C(C(=O)O)CCO3)cc1 (stereo not shown) [Example 167, 6-chloro-7-(4-(1-(3-chloro-4-fluorophenyl)-1H-pyrazol-3-ylcarbamoyl)phenoxy)chroman-4-carboxylic acid]"
12,112 nM,"O=C(Nc1ccn(-c2ccc(F)cc2F)n1)c1ccc(Oc2cc3c(cc2Cl)C(C(=O)O)CCO3)cc1 (stereo not shown) [Example 168, 6-chloro-7-(4-(1-(2,4-difluorophenyl)-1H-pyrazol-3-ylcarbamoyl)phenoxy)chroman-4-carboxylic acid]"
13,76 nM,"O=C(Nc1ccn(-c2cccc(Cl)c2F)n1)c1ccc(Oc2cc3c(cc2Cl)C(C(=O)O)CCO3)cc1 (stereo not shown) [Example 169, 6-chloro-7-(4-(1-(3-chloro-2-fluorophenyl)-1H-pyrazol-3-ylcarbamoyl)phenoxy)chroman-4-carboxylic acid]"
14,292 nM,"COc1ccc(-n2ccc(NC(=O)c3ccc(Oc4cc5c(cc4Cl)C(C(=O)O)CCO5)cc3)n2)cc1 (stereo not shown) [Example 170, 6-chloro-7-(4-(1-(4-methoxyphenyl)-1H-pyrazol-3-ylcarbamoyl)phenoxy)chroman-4-carboxylic acid]"
15,97.5 nM,O=C(Nc1ccn(-c2ccccc2)n1)c1ccc(Oc2cc3c(cc2Cl)C(C(=O)O)CCO3)cc1 (stereo not shown) [Example 171]
16,55 nM,"O=C(Nc1ccn(-c2cccc(Cl)c2)n1)c1ccc(Oc2cc3c(cc2Cl)C(C(=O)O)CCO3)cc1 (stereo not shown) [Example 172, 6-chloro-7-(4-(1-(3-chlorophenyl)-1H-pyrazol-3-ylcarbamoyl)phenoxy)chroman-4-carboxylic acid]"
17,22.9 nM,"O=C(Nc1ccn(-c2ccc(Cl)c(Cl)c2)n1)c1ccc(Oc2cc3c(cc2Cl)C(C(=O)O)CCO3)cc1 (stereo not shown) [Example 173, 6-chloro-7-(4-(1-(3,4-dichlorophenyl)-1H-pyrazol-3-ylcarbamoyl)phenoxy)chroman-4-carboxylic acid]"
18,47.1 nM,"O=C(Nc1ccn(-c2ccccc2Cl)n1)c1ccc(Oc2cc3c(cc2Cl)C(C(=O)O)CCO3)cc1 (stereo not shown) [Example 174, 6-chloro-7-(4-(1-(2-chlorophenyl)-1H-pyrazol-3-ylcarbamoyl)phenoxy)chroman-4-carboxylic acid]"
19,80.7 nM,"O=C(Nc1ccn(-c2ccc(Cl)cc2)n1)c1ccc(Oc2cc3c(cc2Cl)C(C(=O)O)CCO3)cc1 (stereo not shown) [Example 175, 6-chloro-7-(4-(1-(4-chlorophenyl)-1H-pyrazol-3-ylcarbamoyl)phenoxy)chroman-4-carboxylic acid]"
20,951 nM,"Cn1nc(C(C)(C)C)cc1NC(=O)c1ccc(Oc2cc3c(cc2Cl)C(C(=O)O)CCO3)cc1 (stereo not shown) [Example 178, 7-(4-(3-tert-butyl-1-methyl-1H-pyrazol-5-ylcarbamoyl)phenoxy)-6-chlorochroman-4-carboxylic acid]"
21,247 nM,"O=C(Nc1ccn(Cc2ccc(Cl)cc2)n1)c1ccc(Oc2cc3c(cc2Cl)C(C(=O)O)CCO3)cc1 (stereo not shown) [Example 179, 6-chloro-7-(4-(1-(4-chlorobenzyl)-1H-pyrazol-3-ylcarbamoyl)phenoxy)chroman-4-carboxylic acid]"
22,406 nM,"O=C(Nc1cc(-c2ccc(Cl)cc2)n[nH]1)c1ccc(Oc2cc3c(cc2Cl)C(C(=O)O)CCO3)cc1 (stereo not shown) [Example 180, 6-Chloro-7-(4-(3-(4-chlorophenyl)-1H-pyrazol-5-ylcarbamoyl)phenoxy)chroman-4-carboxylic acid]"
23,313 nM,"O=C(Nc1cc(-c2ccc(F)cc2)n[nH]1)c1ccc(Oc2cc3c(cc2Cl)C(C(=O)O)CCO3)cc1 (stereo not shown) [Example 181, 6-Chloro-7-(4-(3-(4-fluorophenyl)-1H-pyrazol-5-ylcarbamoyl)phenoxy)chroman-4-carboxylic acid]"
24,45.8 nM,"O=C(Nc1nc2ccc(C(F)(F)F)cc2s1)c1ccc(Oc2cc3c(cc2Cl)C(C(=O)O)CCO3)cc1 (stereo not shown) [Example 183, 6-Chloro-7-(4-(6-(trifluoromethyl)benzo[d]thiazol-2-ylcarbamoyl)phenoxy)chroman-4-carboxylic acid]"
25,42.1 nM,"COc1nc(C2CC2)ccc1CCNC(=O)c1ccc(Oc2cc3c(cc2Cl)C(C(=O)O)CCO3)cc1 (stereo not shown) [Example 184, Sodium 6-Chloro-7-(4-(2-(6-cyclopropyl-2-methoxypyridin-3-yl)ethylcarbamoyl)phenoxy)chroman-4-carboxylate]"
26,32.6 nM,"O=C(NCCc1ccc(C(F)(F)F)nc1C1CC1)c1ccc(Oc2cc3c(cc2Cl)C(C(=O)O)CCO3)cc1 (stereo not shown) [Example 186, Sodium 6-Chloro-7-(4-(2-(2-cyclopropyl-6-(trifluoromethyl)pyridin-3-yl)ethylcarbamoyl)phenoxy)chroman-4-carboxylate]"
27,45.2 nM,"CN(C)c1nc(C2CC2)ccc1CCNC(=O)c1ccc(Oc2cc3c(cc2Cl)C(C(=O)O)CCO3)cc1 (stereo not shown) [Example 187, 6-Chloro-7-(4-(2-(6-cyclopropyl-2-(dimethylamino)pyridin-3-yl)ethylcarbamoyl)phenoxy)chroman-4-carboxylic acid]"
